Values of other authors in US7833962B2, “Method of reducing hypertension by administering flavanol gylcosides” (Conopco, Inc., priority 2003, dated 2010).
Entries after “also recorded” stand apart in the source; their conditions may differ.

Key:
[1] = test system: Spontaneously Hypertensive Rats (SHR); conditions: chronic treatment, Duarte et al. 2001
[2] = compared with quercetin glucosides such as isoquercitrin

| Structure (SMILES) | blood pressure [1] | glutathione peroxidase activity [1] | plasma and hepatic malondialdehyde levels [1] | bioavailability [2] |
| --- | --- | --- | --- | --- |
| O=c1c(O)c(-c2ccc(O)c(O)c2)oc2cc(O)cc(O)c12 [quercetin aglycone, quercetin] | reduced blood pressure | increased glutathione peroxidase activity | reduced both plasma and hepatic malondialdehyde levels | – |
| C[C@@H]1O[C@@H](OC[C@H]2O[C@@H](Oc3c(-c4ccc(O)c(O)c4)oc4cc(O)cc(O)c4c3=O)[C@H](O)[C@@H](O)[C@@H]2O)[C@H](O)[C@H](O)[C@H]1O [rutin, quercetin-3-rutinoside] | – | – | – | poor bioavailability; also recorded: much lower than the glucoside isoquercitrin |
